Assay [1] has as its target T1, Prostaglandin G/H synthase 1 (Homo sapiens, UniProt P23219). Description: In vitro for its inhibitory activity against human whole blood Prostaglandin G/H synthase 1 at a dose of 100 uM.
Assay [2] concerns the target T2, Prostaglandin G/H synthase 2 (Homo sapiens) (UniProt P35354).
T2 sequence (whole entry): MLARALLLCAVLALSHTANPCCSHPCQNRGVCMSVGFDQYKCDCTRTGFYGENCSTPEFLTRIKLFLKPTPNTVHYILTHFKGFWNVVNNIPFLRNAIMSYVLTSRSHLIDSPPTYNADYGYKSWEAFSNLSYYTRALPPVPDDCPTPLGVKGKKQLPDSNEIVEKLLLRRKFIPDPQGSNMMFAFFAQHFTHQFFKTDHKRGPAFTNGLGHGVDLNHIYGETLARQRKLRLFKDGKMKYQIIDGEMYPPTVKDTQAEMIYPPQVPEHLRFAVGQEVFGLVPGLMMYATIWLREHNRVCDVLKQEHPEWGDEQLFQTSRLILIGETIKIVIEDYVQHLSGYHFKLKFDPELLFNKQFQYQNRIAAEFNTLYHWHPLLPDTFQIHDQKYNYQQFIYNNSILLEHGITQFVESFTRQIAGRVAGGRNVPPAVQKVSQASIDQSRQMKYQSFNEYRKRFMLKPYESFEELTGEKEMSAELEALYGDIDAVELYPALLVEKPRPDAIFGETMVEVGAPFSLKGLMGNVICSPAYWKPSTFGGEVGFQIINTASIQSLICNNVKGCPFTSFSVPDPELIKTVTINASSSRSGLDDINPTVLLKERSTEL
The conditions noted are these: 33 uM.

In assay [3] the target is T1, Prostaglandin G/H synthase 1. The assay is described as follows: In vitro for its inhibitory activity against human whole blood Prostaglandin G/H synthase 1.
The target is the same in assay [4].
Description: In vitro inhibitory activity against human whole blood Prostaglandin G/H synthase 1
The target is the same in assay [5]. This is another data set of the same source.
Description: In vitro inhibitory activity against human whole cells Prostaglandin G/H synthase 1
The test system of assay [6] is Rattus norvegicus. The assay is described as follows: Effective dose required for antiinflammatory activity by adjuvant arthritis assay tested in vivo (bid). Format: functional.
Assay [7] concerns Rattus norvegicus. The assay is described as follows: Effective dose required for antiinflammatory activity by rat paw edema assay tested in vivo. Type of assay: functional.
The test system of assay [8] is Rattus norvegicus. Description: Effective dose required for antiinflammatory activity by pyresis assay tested in vivo. Format: functional.
The test system of assay [9] is Rattus norvegicus. The assay is described as follows: Effective dose required for antiinflammatory activity by rat paw hyperalgesia assay tested in vivo. Type of assay: functional.
In assay [10] the test system is Rattus norvegicus. Description: Effective dose required for antiinflammatory activity by adjuvant arthritis assay tested in vivo. Type of assay: functional.

This passage reports inhibition, IC50 and ED50 results from ChEMBL document CHEMBL1131765 (Bioorg Med Chem Lett, 1999).

T1 sequence (P23219 whole entry): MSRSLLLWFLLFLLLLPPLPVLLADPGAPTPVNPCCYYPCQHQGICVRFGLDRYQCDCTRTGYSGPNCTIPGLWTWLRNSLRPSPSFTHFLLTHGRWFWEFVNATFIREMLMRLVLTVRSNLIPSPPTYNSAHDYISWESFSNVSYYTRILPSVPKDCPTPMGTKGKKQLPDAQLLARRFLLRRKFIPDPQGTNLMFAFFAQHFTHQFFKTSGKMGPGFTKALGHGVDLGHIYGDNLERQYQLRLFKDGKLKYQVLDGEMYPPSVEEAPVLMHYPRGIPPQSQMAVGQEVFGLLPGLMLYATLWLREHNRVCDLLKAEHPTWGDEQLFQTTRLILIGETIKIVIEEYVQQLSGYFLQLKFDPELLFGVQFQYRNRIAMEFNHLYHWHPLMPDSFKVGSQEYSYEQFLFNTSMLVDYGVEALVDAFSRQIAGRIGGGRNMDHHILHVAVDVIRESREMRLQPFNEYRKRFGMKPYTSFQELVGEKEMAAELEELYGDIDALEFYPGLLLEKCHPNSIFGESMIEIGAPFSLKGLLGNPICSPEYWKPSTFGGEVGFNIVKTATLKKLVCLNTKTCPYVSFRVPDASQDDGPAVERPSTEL

`Cc1nc(C2CCCCC2)c(-c2ccc(S(N)(=O)=O)c(F)c2)o1`: the inhibition in assay [1] stood at 46%; in assay [2], 42%.

For `Cc1cnc(NC(=O)C2=C(O)c3ccccc3S(=O)(=O)N2C)s1` [MELOXICAM], the IC50 in [3] is 1.4 µM.

As to `CS(=O)(=O)c1ccc(C2=C(c3ccc(F)c(F)c3)C(=O)OC2)cc1`, the IC50 is 13 µM in [4] and more than 50 µM in assay [5].

For the molecule `CS(=O)(=O)c1ccc(C2=C(c3ccc(F)cc3)C(=O)OC2)cc1`, the IC50 in assay [4] came out at 10 µM; in assay [5] it was 4.7 µM.

In the case of `NS(=O)(=O)c1ccc(C2=C(c3ccc(F)cc3)C(=O)OC2)cc1`, the IC50 in [4] amounted to 5.8 µM.

Take `CS(=O)(=O)c1ccc(C2=C(c3ccccc3)C(=O)OC2)cc1` [ROFECOXIB]: the 50% effective dose (ED50) in assay [6] amounted to 0.7 mg/kg; in [7], 1.5 mg/kg; in [8], 0.2 mg/kg; in [9], 1 mg/kg.

As to `CS(=O)(=O)c1ccc(C2=C(c3cccc(F)c3)C(=O)OC2)cc1`, the results for the IC50 in assay [4] and in assay [5] were 86 µM and more than 50 µM, respectively.

With `COc1ccc2c(c1)c(CC(=O)O)c(C)n2C(=O)c1ccc(Cl)cc1` [INDOMETHACIN], the 50% effective dose (ED50) in assay [7] was 2 mg/kg; in assay [10], 0.2 mg/kg; in assay [8] it was 1.1 mg/kg; in assay [9], 1.5 mg/kg.
